Source: publication PMC12420824, “Discovery of a selective alpha-kinase 1 inhibitor for the rare genetic disease ROSAH syndrome” (Nature Communications, 2025)
Where two headings read alike, the source gives them in different places.

What was measured:
[1] = biological target: T1, full-length ALPK1 (Homo sapiens, UniProt Q96QP1); assay: Thermal shift assay (TSA); assay type: binding; details: pilot TSA screen / assay validation
T1 construct: recombinant full-length ALPK1 kinase purified from Sf9 cells; 3xFlag (C); made in house; host or cells: Sf9 insect cells (baculovirus, pFAST-BAC)
T1 sequence (Q96QP1 whole entry): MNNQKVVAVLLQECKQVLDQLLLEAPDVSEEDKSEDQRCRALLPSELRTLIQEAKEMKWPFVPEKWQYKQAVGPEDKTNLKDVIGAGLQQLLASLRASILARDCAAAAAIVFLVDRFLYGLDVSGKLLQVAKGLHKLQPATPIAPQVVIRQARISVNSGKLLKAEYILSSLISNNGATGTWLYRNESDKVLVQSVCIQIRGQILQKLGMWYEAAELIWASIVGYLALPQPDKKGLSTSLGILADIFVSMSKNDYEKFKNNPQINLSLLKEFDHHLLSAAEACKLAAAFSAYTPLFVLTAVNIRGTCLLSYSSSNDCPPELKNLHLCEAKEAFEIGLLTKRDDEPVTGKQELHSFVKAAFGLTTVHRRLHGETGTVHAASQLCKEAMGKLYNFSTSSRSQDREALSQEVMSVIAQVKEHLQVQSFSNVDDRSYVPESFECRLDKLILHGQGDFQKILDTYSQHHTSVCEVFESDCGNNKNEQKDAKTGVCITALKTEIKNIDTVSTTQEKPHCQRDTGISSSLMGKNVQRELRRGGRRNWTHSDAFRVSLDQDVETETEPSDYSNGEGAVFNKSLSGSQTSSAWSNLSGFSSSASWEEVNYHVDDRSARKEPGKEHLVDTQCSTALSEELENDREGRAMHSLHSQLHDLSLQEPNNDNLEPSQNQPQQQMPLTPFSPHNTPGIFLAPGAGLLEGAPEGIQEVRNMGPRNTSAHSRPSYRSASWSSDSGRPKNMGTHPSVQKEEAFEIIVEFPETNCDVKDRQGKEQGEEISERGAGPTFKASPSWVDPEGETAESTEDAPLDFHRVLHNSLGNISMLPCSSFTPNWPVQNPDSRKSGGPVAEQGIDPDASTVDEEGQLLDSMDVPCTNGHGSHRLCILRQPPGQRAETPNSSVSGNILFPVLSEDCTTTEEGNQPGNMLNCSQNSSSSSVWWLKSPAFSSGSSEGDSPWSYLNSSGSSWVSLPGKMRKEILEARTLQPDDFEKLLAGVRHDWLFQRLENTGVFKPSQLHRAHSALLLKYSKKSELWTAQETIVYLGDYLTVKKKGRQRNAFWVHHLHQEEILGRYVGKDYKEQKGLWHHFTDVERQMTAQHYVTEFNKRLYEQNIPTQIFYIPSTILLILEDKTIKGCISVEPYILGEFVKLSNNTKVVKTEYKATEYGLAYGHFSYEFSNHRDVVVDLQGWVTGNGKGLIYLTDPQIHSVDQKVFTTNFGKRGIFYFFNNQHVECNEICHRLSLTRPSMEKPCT
Description: A small molecule library containing ~160,000 compounds (HTS Diversity V2) was prepared by WuXi AppTec (Shanghai, China) in 384 well thin-wall qPCR plates, with 20 nL of 10 mM compound preparations in each well. On each screening plate, 2 columns of wells were loaded with 20 nL of pure DMSO to leave spaces for negative controls (no compounds) and the positive control (AS-252424). […] The mixture was spun down at 1000 rpm for 1 min, then immediately applied to a protein melting reaction on a Roche LightCycler® 480 II Real-time PCR system, heating the mixture from 30 °C to 50 °C at the ramp rate of 0.02 °C/s while continuously acquiring the fluorescence signal. The melting temperature (Tm) of the ALPK1 protein with or without each compound was calculated using the Protein Thermal Shift™ Analysis Desktop Software v1.2 (Thermo Fisher Scientific). For positive control wells, 40 μM AS-252424 in 5 μl compound solvent was added manually and used as a positive control in the thermal shift screening.

[2] = biological target: ALPK1 (Homo sapiens, UniProt Q96QP1); assay: TR-FRET (HTRF) kinase assay; details: 6.25 µM ATP, 20 nM ADP-D-heptose
Chain of ALPK1 (Q96QP1 whole entry): as above
Description: The 10 µL kinase reactions were allowed to proceed for 1.5 h at 27 °C. Kinase reactions were terminated by adding 10 µL of the HTRF KinEASE detection kit buffer (Cisbio, Bedford, MA, USA; 62SDBRDF) containing monoclonal anti-HA-Eu cryptate (Cisbio; 610HAKLB) and monoclonal Anti HA-d2 to each well. TIFA phosphorylation levels were monitored through the detection of oligomerization signals generated upon TIFAsome assembly. Both donor and acceptor antibodies recognize TIFA and will generate a TR-FRET signal when bound to the same TIFA oligomer formed upon TIFA phosphorylation. […] The TR-FRET signals were calculated as the ratio of the acceptor and donor emission signals with the formula below:
ALPK1 kinase activity was calculated as follows: % Activity = 100% × (TR-FRET signal of test compound - mean TR-FRET signal of no ATP 1% DMSO control) / (mean TR-FRET signal of 1% DMSO control – mean TR-FRET signal of no ATP 1% DMSO control).
In multi-dose assays, compound activity was calculated via logarithmic interpolation. Concentration-response curves were fitted with a four-parameter logistic nonlinear regression model and the IC50 values for these compounds were calculated in GraphPad Prism 6.

[3] = read-out: IC50 in TR-FRET assay

SMILES | IC50 ([2]; read-out: HTRF Assay (IC50)) | further results
Nc1ncnc2c1ncn2[C@@H]1O[C@H](COP(=O)(O)OP(=O)(O)O)[C@@H](O)[C@H]1O [ADP] |  | increase in melting temperature (Tm) [1]: 1.4 °C
O=C(NCc1ccccc1)Nc1nc(C2(c3ccccc3)CCCC2)cs1 [Compound 1] | 5000 nM | 
CC(C)(c1ccccc1)c1csc(NC(=O)NCc2ccccc2)n1 [Compound 2] | 2500 nM | 
CC(C)(c1ccccc1)c1csc(NC(=O)NCc2ccccc2)n1 [Compound 3] | 2100 nM | 
COc1ccccc1CNC(=O)Nc1nc(C(C)(C)c2ccccc2)cs1 [Compound 4] | 2200 nM | 
COc1ccccc1CNC(=O)Nc1nc(C(C)(C)c2ccc(Br)cc2)cs1 [Compound 5] | 1100 nM | 
COc1ccccc1CNC(=O)Nc1nc(C(C)(C)c2cccc(Br)c2)cs1 [Compound 6] |  | HTRF Assay (IC50) [2]: No activity
COc1ccccc1CNC(=O)Nc1nc(C2(c3ccccc3)CC2)cs1 [Compound 7] |  | HTRF Assay (IC50) [2]: No activity
COc1ccccc1CNC(=O)Nc1nc(C2(c3ccccc3)CCC2)cs1 [Compound 8] |  | HTRF Assay (IC50) [2]: No activity
COc1ccccc1CNC(=O)Nc1nc(C(C)c2ccccc2)cs1 (centres unmarked) [Compound 9] | 3750 nM | 
CC(C)(c1ccc(OC(F)(F)F)cc1)c1csc(NC(=O)NCc2ccc(N3CCNCC3)cc2)n1 [Compound 10] | 1130 nM | 
CC(C)(c1ccc(Cl)cc1)c1csc(NC(=O)NCc2ccc(N3CCNCC3)cc2)n1 [Compound 11] | 44 nM | 
CC(C)(c1ccc(C2CC2)cc1)c1csc(NC(=O)NCc2ccc(N3CCNCC3)cc2)n1 [Compound 12] | 155 nM | 
CC(C)(c1ccc(C#N)cc1)c1csc(NC(=O)NCc2ccc(N3CCNCC3)cc2)n1 [Compound 13] | 236 nM | 
CC(C)(c1ccc(F)cc1)c1csc(NC(=O)NCc2ccc(N3CCNCC3)cc2)n1 [Compound 14] | 915 nM | 
CC(C)(c1ccc(I)cc1)c1csc(NC(=O)NCc2ccc(N3CCNCC3)cc2)n1 [Compound 15] | 284 nM | 
O=C(NCc1ccc(N2CCNCC2)cc1)Nc1nc(C(CO)c2ccc(Br)cc2)cs1 (centres unmarked) [Compound 16] | 5620 nM | 
CC(c1ccc(Br)cc1)c1csc(NC(=O)NCc2ccc(N3CCNCC3)cc2)n1 (centres unmarked) [Compound 17] | 391 nM | 
CC(C)(c1ccc(Br)cc1)c1csc(NC(=O)NCc2ccc(N3CCNCC3)cc2)n1 [Compound 18] | 130 nM | 
CCC(C)(c1ccc(Br)cc1)c1csc(NC(=O)NCc2ccc(N3CCNCC3)cc2)n1 (centres unmarked) [Compound 19] | 429 nM | 
COc1ccc(C(C)(C)c2csc(NC(=O)NCc3ccc(N4CCNCC4)cc3)n2)cc1 [Compound 20] | 122 nM | 
COc1ccc(C(C)(C)c2csc(NC(=O)NCc3ccc(N4CCNCC4)c(F)c3)n2)cc1 [Compound 21] | 84 nM | 
CC(C)(c1ccc(O)cc1)c1csc(NC(=O)NCc2ccc(N3CCNCC3)cc2)n1 [Compound 22] | 732 nM | 
CC(C)(c1ccc(Br)cc1)c1csc(NC(=O)NCc2ccc(N3CCNCC3)c(F)c2)n1 [Compound 23] | 138 nM | 
CC(C)(c1ccc(Br)cc1)c1csc(NC(=O)NCc2ccc(N3CCNCC3)c(Cl)c2)n1 [Compound 24] | 233 nM | 

SMILES | IC50 ([2]; read-out: HTRF Assay (IC50)) | further results
Cc1cc(CNC(=O)Nc2nc(C(C)(C)c3ccc(Br)cc3)cs2)ccc1N1CCNCC1 [Compound 25] | 462 nM | 
COc1cc(CNC(=O)Nc2nc(C(C)(C)c3ccc(Br)cc3)cs2)ccc1N1CCNCC1 [Compound 26] | 161 nM | 
COCCNC(=O)Nc1nc(C(C)(C)c2ccc(Br)cc2)cs1 [Compound 28] | 1130 nM | 
C#CC(C)(c1ccc(Br)cc1)c1csc(NC(=O)NCCO)n1 (centres unmarked) [Compound 29] | 71 nM | 
C#CC(C)(c1ccc(Br)cc1)c1csc(NC(N)=O)n1 (centres unmarked) [Compound 30] | 130 nM | 
C#CC(C)(c1ccc(OC)cc1)c1csc(NC(N)=O)n1 (centres unmarked) [Compound 31] | 94 nM | 
C#CC(CC)(c1ccc(Br)cc1)c1csc(NC(=O)NCCO)n1 (centres unmarked) [Compound 32] | 886 nM | 
COCC(C)(c1ccc(Cl)cc1)c1csc(NC(=O)NCCO)n1 (centres unmarked) [Compound 33] | 558 nM | 
C#CC(C)(c1ccc(Cl)cc1)c1csc(NC(N)=O)n1 (centres unmarked) [Compound 34] | 48 nM | 
COc1cccc2sc(NC(=O)c3c(F)cccc3F)nc12 [Compound 35] | 1300 nM | 
COc1cccc2sc(NC(=O)c3c(F)cc(N4CCN(Cc5ccccc5)C(=O)C4)cc3F)nc12 [Compound 36] | 321 nM | 
COc1cccc2sc(NC(=O)c3c(F)cc(NCCN(C)C)cc3F)nc12 [Compound 37] | 507 nM | 
COc1cccc2sc(NC(=O)c3c(F)cc(N4CCC(N)C4)cc3F)nc12 (centres unmarked) [Compound 38] | 125 nM | 
COc1cccc2sc(NC(=O)c3c(F)cc(N4CCC(O)C4)cc3F)nc12 (centres unmarked) [Compound 39] | 3190 nM | 
COc1cccc2sc(NC(=O)c3c(F)cc(OCCO)cc3F)nc12 [Compound 40] | 560 nM | 
COc1cccc2sc(NC(=O)c3c(F)cc(N4CCC(CO)CC4)cc3F)nc12 [Compound 41] | 2280 nM | 
COc1cccc2sc(NC(=O)c3c(F)cc(N4CCN(CCO)CC4)cc3F)nc12 [Compound 42] | 5310 nM | 
COc1cccc2sc(NC(=O)c3c(F)cc(N4CCNCC4)cc3F)nc12 [Compound 43] | 209 nM | 
COc1cccc2sc(NC(=O)c3c(F)cc(N4CCNC(C)C4)cc3F)nc12 (centres unmarked) [Compound 44] | 349 nM | 
C#CC(C)(c1ccc(Cl)cc1)c1csc(NC(=O)c2ccc(N3CCNCC3)cc2)n1 (centres unmarked) [Compound 45] | 38 nM | 
C#CC(C)(c1ccc(Cl)cc1)c1csc(NC(=O)c2ccc(N3CCNCC3)nc2)n1 (centres unmarked) [Compound 46] | 167 nM | 
C#CC(C)(c1ccc(Cl)cc1)c1csc(NC(=O)c2c(F)ccc(OC)c2F)n1 (centres unmarked) [Compound 47] | 1550 nM | 
C#CC(C)(c1ccc(Cl)cc1)c1csc(NC(=O)c2ccc(N3CCNCC3)cc2F)n1 (centres unmarked) [Compound 48] | 151 nM | 
C#CC(C)(c1ccc(Cl)cc1)c1csc(NC(=O)c2c(F)cc(N3CCN(C)CC3)cc2F)n1 (centres unmarked) [Compound 51] | 425 nM | 
C#CC(C)(c1ccc(Cl)cc1)c1csc(NC(=O)c2c(F)cc(NCCO)cc2F)n1 (centres unmarked) [Compound 52] | 405 nM | 

SMILES | IC50 ([2]; read-out: HTRF Assay (IC50)) | further results
C#CC(C)(c1ccc(Cl)cc1)c1csc(NC(=O)c2c(Cl)cc(N3CCNCC3)cc2Cl)n1 (centres unmarked) [Compound 53] | 312 nM | 
C#CC(C)(c1ccc(Cl)cc1)c1csc(NC(=O)c2c(F)cc(N3CCC(N)C3)cc2F)n1 (centres unmarked) [Compound 54] | 31 nM | 
C#CC(C)(c1ccc(Cl)cc1)c1csc(NC(=O)c2c(F)cc(N3CCNC(CO)C3)cc2F)n1 (centres unmarked) [Compound 55] | 317 nM | 
C#CC(C)(c1ccc(Cl)cc1)c1csc(NC(=O)c2c(F)cc(N3CCNCC3CO)cc2F)n1 (centres unmarked) [Compound 56] | 20 nM | 
C#CC(C)(c1ccc(Cl)cc1)c1csc(NC(=O)c2c(F)cc(N3CCNCC3CC)cc2F)n1 (centres unmarked) [Compound 58] | 70 nM | 
CC(c1ccc(Cl)cc1)c1csc(NC(=O)c2c(F)cc(N3CCNCC3)cc2F)n1 (centres unmarked) [Compound 59] | 270 nM | 
O=C(Nc1nc(Cc2ccccn2)cs1)c1c(F)cc(N2CCNCC2)cc1F [Compound 60] | 1270 nM | 
CC(C)(c1ccc(F)cc1)c1csc(NC(=O)c2c(F)cc(N3CCNCC3)cc2F)n1 [Compound 61] | 23 nM | 
COCC(C)(c1ccccc1)c1csc(NC(=O)c2c(F)cc(N3CCNCC3)cc2F)n1 (centres unmarked) [Compound 62] | 182 nM | 
O=C(Nc1nc(C2(c3ccc(Br)cc3)CCCC2)cs1)c1c(F)cc(N2CCNCC2)cc1F [Compound 63] | 437 nM | 
C#CC(C)(c1ccc(F)cc1)c1csc(NC(=O)c2c(F)cc(N3CCNCC3)cc2F)n1 (centres unmarked) [Compound 64] | 14 nM | 
C#CC(C)(c1csc(NC(=O)c2c(F)cc(N3CCNCC3)cc2F)n1)c1ccc(Cl)cc1F (centres unmarked) [Compound 65] | 77 nM | 
C#CC(CC)(c1ccc(Cl)cc1)c1csc(NC(=O)c2c(F)cc(N3CCNCC3)cc2F)n1 (centres unmarked) [Compound 66] | 83 nM | 
C#CC(C)(c1ccc(Cl)c(F)c1)c1csc(NC(=O)c2c(F)cc(N3CCNCC3)cc2F)n1 (centres unmarked) [Compound 67] | 17 nM | 
C#CC(C)(c1ccc(C)cc1)c1csc(NC(=O)c2c(F)cc(N3CCNCC3)cc2F)n1 (centres unmarked) [Compound 68] | 13 nM | 
CC#CC(C)(c1ccc(Cl)cc1)c1csc(NC(=O)c2c(F)cc(N3CCNCC3)cc2F)n1 (centres unmarked) [Compound 69] | 45 nM | 
CC(c1ccccc1)(c1ccc(Cl)cc1)c1csc(NC(=O)c2c(F)cc(N3CCNCC3)cc2F)n1 (centres unmarked) [Compound 70] | 577 nM | 
CC(c1ccc(Cl)cc1)(c1csc(NC(=O)c2c(F)cc(N3CCNCC3)cc2F)n1)C1CC1 (centres unmarked) [Compound 71] | 25 nM | 
C#CC(C)(c1ccc(OC)cc1)c1csc(NC(=O)c2c(F)cc(N3CCNCC3)cc2F)n1 (centres unmarked) [Compound 72] | 18 nM | 
C#CC(C)(c1ccc(OC(F)F)cc1)c1csc(NC(=O)c2c(F)cc(N3CCNCC3)cc2F)n1 (centres unmarked) [Compound 73] | 73 nM | 
COCC(C)(c1ccc(Cl)cc1)c1csc(NC(=O)c2c(F)cc(N3CCNCC3)cc2F)n1 (centres unmarked) [Compound 74] | 42 nM | 
CCOCC(C)(c1ccccc1)c1csc(NC(=O)c2c(F)cc(N3CCNCC3)cc2F)n1 (centres unmarked) [Compound 75] | 642 nM | 
Nc1nc(C2(c3ccccc3)CCCC2)cs1 [Hit 1] |  | IC50 [2, 3]: 4000 nM
COc1ccc(OC)c2sc(NC(=O)c3c(F)cccc3F)nc12 [Hit 2] |  | IC50 [2, 3]: 11000 nM
